{
  "source": "patent US8785499B2",
  "about": "(priority 2009, dated 2014)",
  "key": {"ecNadD": {"target": "ecNadD (Escherichia coli (strain K12), UniProt P0A752)", "experiment": "biochemical", "assay_type": "biochemical", "details": "for inhibition at 100 µM: read-out: INHIBITION (%) E. coli"}, "baNadD": {"target": "baNadD (Bacillus anthracis, UniProt C3L5T6)", "sequence (C3L5T6 whole entry, looked up)": "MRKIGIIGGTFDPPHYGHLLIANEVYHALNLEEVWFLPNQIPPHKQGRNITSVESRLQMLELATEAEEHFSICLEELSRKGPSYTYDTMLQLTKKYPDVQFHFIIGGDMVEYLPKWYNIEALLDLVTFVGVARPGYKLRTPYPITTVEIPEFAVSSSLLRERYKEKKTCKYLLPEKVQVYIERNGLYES", "experiment": "biochemical", "assay_type": "biochemical", "details": "for inhibition at 50 µM: read-out: INHIBITION (%) B. anthracis"}},
  "data": [
    {"compound": "O=C(O)CC(NC(=O)OCc1ccccc1)c1ccccc1", "note": "(stereo not drawn) [compound 261]", "values": [
      {"measurement": "[…]. coli", "setting": "ecNadD", "result": 0, "unit": "%"},
      {"measurement": "[…]. anthracis", "setting": "baNadD", "result": 24, "unit": "%"}
    ]},
    {"compound": "O=C(CCN1C(=O)c2ccccc2C1=O)NCc1ccncc1", "note": "[compound 302]", "values": [
      {"measurement": "[…]. coli", "setting": "ecNadD", "result": 0, "unit": "%"},
      {"measurement": "[…]. anthracis", "setting": "baNadD", "result": 0, "unit": "%"}
    ]},
    {"compound": "Cc1ccc(S(=O)(=O)/N=C(/NCC(=O)O)c2ccccc2)cc1", "note": "[compound 211]", "values": [
      {"measurement": "[…]. coli", "setting": "ecNadD", "result": 0, "unit": "%"},
      {"measurement": "[…]. anthracis", "setting": "baNadD", "result": 42, "unit": "%"}
    ]},
    {"compound": "NS(=O)(=O)c1ccc(N/C=C2\\C(=O)Oc3ccccc3C2=O)cc1", "note": "[compound 218]", "values": [
      {"measurement": "[…]. coli", "setting": "ecNadD", "result": 0, "unit": "%"},
      {"measurement": "[…]. anthracis", "setting": "baNadD", "result": 0, "unit": "%"}
    ]},
    {"compound": "Cc1ccc(OCC(=O)Nc2nnc[nH]2)c(Br)c1", "note": "[compound 046]", "values": [
      {"measurement": "[…]. coli", "setting": "ecNadD", "result": 17, "unit": "%"},
      {"measurement": "[…]. anthracis", "setting": "baNadD", "result": 71, "unit": "%"}
    ]},
    {"compound": "Cn1nnnc1SCC(=O)Nc1ccc(Br)cc1Cl", "note": "[compound 108]", "values": [
      {"measurement": "[…]. coli", "setting": "ecNadD", "result": 9, "unit": "%"},
      {"measurement": "[…]. anthracis", "setting": "baNadD", "result": 0, "unit": "%"}
    ]},
    {"compound": "CCCCN(C(C)=O)c1ccc(C(=O)O)cc1", "note": "[compound 114]", "values": [
      {"measurement": "[…]. coli", "setting": "ecNadD", "result": 8, "unit": "%"},
      {"measurement": "[…]. anthracis", "setting": "baNadD", "result": 0, "unit": "%"}
    ]},
    {"compound": "O=C(O)c1cccc(CSc2ncccn2)c1", "note": "[compound 180]", "values": [
      {"measurement": "[…]. coli", "setting": "ecNadD", "result": 3, "unit": "%"},
      {"measurement": "[…]. anthracis", "setting": "baNadD", "result": 15, "unit": "%"}
    ]},
    {"compound": "NS(=O)(=O)c1ccc2nc(NC(=O)c3ccncc3)sc2c1", "note": "[compound 059]", "values": [
      {"measurement": "[…]. coli", "setting": "ecNadD", "result": 15, "unit": "%"},
      {"measurement": "[…]. anthracis", "setting": "baNadD", "result": 0, "unit": "%"}
    ]},
    {"compound": "COc1cc(/C=N/c2ccc3[nH]c(=O)[nH]c3c2)ccc1OC(C)=O", "note": "[compound 012]", "values": [
      {"measurement": "[…]. coli", "setting": "ecNadD", "result": 30, "unit": "%"},
      {"measurement": "[…]. anthracis", "setting": "baNadD", "result": 0, "unit": "%"}
    ]},
    {"compound": "CCc1cccc(C)c1N/C=C1\\C(=O)Nc2ccccc21", "note": "[15_41]", "values": [
      {"measurement": "inhibition at 100 µM", "setting": "ecNadD", "result": 0, "unit": "%"},
      {"measurement": "inhibition at 50 µM", "setting": "baNadD", "result": 13, "unit": "%"}
    ]},
    {"compound": "Cc1cccc(C)c1N/C=C1\\C(=O)Nc2ccccc21", "note": "[15_36]", "values": [
      {"measurement": "inhibition at 100 µM", "setting": "ecNadD", "result": 4, "unit": "%"},
      {"measurement": "inhibition at 50 µM", "setting": "baNadD", "result": 11, "unit": "%"}
    ]},
    {"compound": "CC(=O)c1cccc(N/C=C2\\C(=O)Nc3ccccc32)c1", "note": "[15_35]", "values": [
      {"measurement": "inhibition at 100 µM", "setting": "ecNadD", "result": 4, "unit": "%"},
      {"measurement": "inhibition at 50 µM", "setting": "baNadD", "result": 19, "unit": "%"}
    ]},
    {"compound": "Nc1c(C(=O)Nc2cccc(F)c2)sc2nc(-c3ccc(F)cc3)ccc12", "note": "[03_10]", "values": [
      {"measurement": "inhibition at 100 µM", "setting": "ecNadD", "result": 56, "unit": "%"},
      {"measurement": "inhibition at 50 µM", "setting": "baNadD", "result": 60, "unit": "%"}
    ]},
    {"compound": "O=C(CCC(=O)Nc1cccc(Br)c1)N/N=C/c1ccc(I)cc1", "note": "[01_17]", "values": [
      {"measurement": "inhibition at 100 µM", "setting": "ecNadD", "result": 41, "unit": "%"},
      {"measurement": "inhibition at 50 µM", "setting": "baNadD", "result": 35, "unit": "%"}
    ]},
    {"compound": "NS(=O)(=O)c1ccc(NC(=O)CCc2ccccc2)cc1", "note": "[compound 081]", "values": [
      {"measurement": "[…]. coli", "setting": "ecNadD", "result": 11, "unit": "%"},
      {"measurement": "[…]. anthracis", "setting": "baNadD", "result": 0, "unit": "%"}
    ]},
    {"compound": "O=C(O)CCNc1ccc(Br)cc1C(=O)O", "note": "[compound 087]", "values": [
      {"measurement": "[…]. coli", "setting": "ecNadD", "result": 11, "unit": "%"},
      {"measurement": "[…]. anthracis", "setting": "baNadD", "result": 0, "unit": "%"}
    ]},
    {"compound": "O=C(O)CCCC(=O)Nc1nc2ccccc2s1", "note": "[compound 207]", "values": [
      {"measurement": "[…]. coli", "setting": "ecNadD", "result": 0, "unit": "%"},
      {"measurement": "[…]. anthracis", "setting": "baNadD", "result": 7, "unit": "%"}
    ]},
    {"compound": "O=C(O)c1cc(C(=O)O)c2cc(Oc3ccc4nc(C(=O)O)cc(C(=O)O)c4c3)ccc2n1", "note": "[compound 067]", "values": [
      {"measurement": "[…]. coli", "setting": "ecNadD", "result": 13, "unit": "%"},
      {"measurement": "[…]. anthracis", "setting": "baNadD", "result": 1, "unit": "%"}
    ]},
    {"compound": "CCC(NS(=O)(=O)c1ccc(OC)cc1)C(=O)O", "note": "(stereo not drawn) [compound 212]", "values": [
      {"measurement": "[…]. coli", "setting": "ecNadD", "result": 0, "unit": "%"},
      {"measurement": "[…]. anthracis", "setting": "baNadD", "result": 32, "unit": "%"}
    ]},
    {"compound": "CC(=O)NS(=O)(=O)c1ccc(/N=C2\\C(=O)Nc3ccccc32)cc1", "note": "[compound 300]", "values": [
      {"measurement": "[…]. coli", "setting": "ecNadD", "result": 0, "unit": "%"},
      {"measurement": "[…]. anthracis", "setting": "baNadD", "result": 0, "unit": "%"}
    ]},
    {"compound": "O=C(O)CCSCCc1ccncc1", "note": "[compound 193]", "values": [
      {"measurement": "[…]. coli", "setting": "ecNadD", "result": 1, "unit": "%"},
      {"measurement": "[…]. anthracis", "setting": "baNadD", "result": 18, "unit": "%"}
    ]},
    {"compound": "O=C(CSc1nnc(-c2ccncc2)[nH]1)Nc1ccccc1Cl", "note": "[compound 100]", "values": [
      {"measurement": "[…]. coli", "setting": "ecNadD", "result": 9, "unit": "%"},
      {"measurement": "[…]. anthracis", "setting": "baNadD", "result": 0, "unit": "%"}
    ]},
    {"compound": "O=S(=O)(Nc1ccc(Br)c(Cl)c1)c1cccs1", "note": "[compound 203]", "values": [
      {"measurement": "[…]. coli", "setting": "ecNadD", "result": 0, "unit": "%"},
      {"measurement": "[…]. anthracis", "setting": "baNadD", "result": 0, "unit": "%"}
    ]},
    {"compound": "O=C(CSc1nc2ccccc2c(=O)[nH]1)NCc1ccco1", "note": "[compound 167]", "values": [
      {"measurement": "[…]. coli", "setting": "ecNadD", "result": 4, "unit": "%"},
      {"measurement": "[…]. anthracis", "setting": "baNadD", "result": 0, "unit": "%"}
    ]},
    {"compound": "O=C(CSc1nc2ccccc2o1)Nc1ccc(Cl)cn1", "note": "[compound 077]", "values": [
      {"measurement": "[…]. coli", "setting": "ecNadD", "result": 12, "unit": "%"},
      {"measurement": "[…]. anthracis", "setting": "baNadD", "result": 0, "unit": "%"}
    ]},
    {"compound": "COc1cc(OC)cc(-c2cn[nH]c2N)c1", "note": "[compound 090]", "values": [
      {"measurement": "[…]. coli", "setting": "ecNadD", "result": 10, "unit": "%"},
      {"measurement": "[…]. anthracis", "setting": "baNadD", "result": 0, "unit": "%"}
    ]},
    {"compound": "NS(=O)(=O)c1ccc(Nc2nc(-c3ccc(O)c(O)c3)cs2)cc1", "note": "[compound 010]", "values": [
      {"measurement": "[…]. coli", "setting": "ecNadD", "result": 32, "unit": "%"},
      {"measurement": "[…]. anthracis", "setting": "baNadD", "result": 89, "unit": "%"}
    ]},
    {"compound": "COc1ccccc1OCc1nc(-c2ccc(Cl)cc2Cl)no1", "note": "[compound 299]", "values": [
      {"measurement": "[…]. coli", "setting": "ecNadD", "result": 0, "unit": "%"},
      {"measurement": "[…]. anthracis", "setting": "baNadD", "result": 1, "unit": "%"}
    ]},
    {"compound": "O=C(O)C1CCCN(S(=O)(=O)c2cccc([N+](=O)[O-])c2)C1", "note": "(stereo not drawn) [compound 227]", "values": [
      {"measurement": "[…]. coli", "setting": "ecNadD", "result": 0, "unit": "%"},
      {"measurement": "[…]. anthracis", "setting": "baNadD", "result": 0, "unit": "%"}
    ]}
  ]
}
